The experiment concerns the target T1, recombinant human NK1 receptors (Homo sapiens, UniProt P25103).
T1 construct: expressed in transfected cells; host or cells: Chinese Hamster Ovary (CHO) cells, membrane preparation
The experiment is described as follows: NK1-receptor binding affinity, displacement of [3H]-substance P. The following applies: negative logarithm of Ki; displacement of [3H]-substance P from recombinant human NK1 receptors in CHO cell membranes; average of at least two determinations. On the procedure: NK1-receptor binding affinity has been determined in vitro by the compounds' ability to displace [3H]-substance P (SP) from recombinant human NK1 receptors expressed in Chinese Hamster Ovary (CHO) cell membranes.
CHO cell membranes were prepared by using a modification of the method described by Dam T and Quirion R (Peptides, 7: 855–864, 1986). Thus ligand binding was performed in 0.4 mL of 50 mM HEPES, pH 7.4, containing 3 mM MnCl2, 0.02% BSA, 0.5 nM [^3H]-Substance P (30÷56 Ci/mmol, Amersham), a final membrane concentration of 25 μg of protein/ml, and the test compounds. The incubation proceeded at room temperature for 40 min. Non-specific binding was determined using excess of Substance P (1 μM) and represents about 6% of the total binding.
The affinity of the compound of the invention for NK1 receptor was determined using the NK1-receptor binding affinity method measuring in vitro by the compounds' ability to displace [3H]-substance P (SP) from recombinant human NK1 receptors expressed in Chinese Hamster Ovary (CHO) cell membranes. The affinity values are expressed as negative logarithm of the inhibition constant (Ki) of displacer ligands (pKi).
Background: Loss of bound radioactivity is the signal in a displacement assay; it reports binding, not function.

Where a name gives a salt, the structure may show the parent alone.

Twelve compounds from patent US7196077B2, “Tachykinin antagonists” (Glaxo Group Limited, priority 2001, dated 2007) can be followed below.

T1 sequence (P25103 whole entry): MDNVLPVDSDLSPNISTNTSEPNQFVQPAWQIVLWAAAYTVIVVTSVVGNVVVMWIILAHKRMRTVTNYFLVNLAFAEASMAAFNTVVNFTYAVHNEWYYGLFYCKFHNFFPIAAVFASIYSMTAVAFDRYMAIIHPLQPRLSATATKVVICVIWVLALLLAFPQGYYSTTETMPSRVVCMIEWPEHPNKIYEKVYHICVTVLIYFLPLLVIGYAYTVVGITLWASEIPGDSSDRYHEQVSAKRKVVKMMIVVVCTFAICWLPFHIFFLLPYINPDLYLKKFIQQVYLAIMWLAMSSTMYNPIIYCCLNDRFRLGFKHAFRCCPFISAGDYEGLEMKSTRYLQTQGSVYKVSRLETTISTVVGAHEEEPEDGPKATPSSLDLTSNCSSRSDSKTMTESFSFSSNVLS

Broadly, the Ki is the dissociation constant of the complex between target and ligand, obtained from inhibition or displacement. For the compound `Cc1cc(F)ccc1[C@H]1CCNCCN1C(=O)N(C)[C@@H](C)c1cc(C(F)(F)F)cc(C(F)(F)F)c1` [Example 8, 7-(R)-(4-Fluoro-2-methyl-phenyl)-[1,4]-diazepane-1-carboxylic acid, [1-(S)-(3,5-bis-trifluoromethyl-phenyl)-ethyl]-methylamide hydrochloride], the Ki is 0.0457 nM.

Consider `Cc1cc(F)ccc1[C@H]1CNCCCN1C(=O)N(C)Cc1cc(Cl)cc(Cl)c1` [Example 5, 2-(S)-(4-Fluoro-2-methyl-phenyl)-[1,4]-diazepane-1-carboxylic acid, (3,5-dichloro-benzyl)-methylamide hydrochloride], for which the Ki is 0.0661 nM.

For the compound `Cc1cc(F)ccc1[C@H]1CNCCCN1C(=O)N(C)[C@@H](C)c1cc(C(F)(F)F)cc(C(F)(F)F)c1` [Example 7, 2-(S)-(4-Fluoro-2-methyl-phenyl)-[1,4]-diazepane-1-carboxylic acid, [1-(S)-(3,5-bis-trifluoromethyl-phenyl)-ethyl]-methylamide hydrochloride], the Ki was 0.0479 nM.

For `Cc1cc(F)ccc1[C@H]1CCN(C)CCN1C(=O)N(C)Cc1cc(C(F)(F)F)cc(C(F)(F)F)c1` [Example 14, 7-(R)-(4-Fluoro-2-methyl-phenyl)-4-methyl-[1,4]-diazepane-1-carboxylic acid, (3,5-bis-trifluoromethyl-benzyl)-methylamide hydrochloride], the Ki was 0.0562 nM.

On to `Cc1cc(F)ccc1[C@H]1CNCCCN1C(=O)N(C)Cc1cc(C(F)(F)F)cc(C(F)(F)F)c1` [Example 1, 2-(S)-(4-Fluoro-2-methyl-phenyl)-[1,4]-diazepane-1-carboxylic acid, (3,5-bis-trifluoromethyl-benzyl)-methylamide hydrochloride], for which the Ki was 0.0347 nM.

`Cc1cc(F)ccc1[C@H]1CCNCCN1C(=O)N(C)Cc1cc(C(F)(F)F)cc(C(F)(F)F)c1` [Example 2, 7-(R)-(4-Fluoro-2-methyl-phenyl)-[1,4]-diazepane-1-carboxylic acid, (3,5-bis-trifluoromethyl-benzyl)-methylamide hydrochloride]: the Ki was 0.0724 nM.

For `Cc1cc(F)ccc1[C@H]1CCN(C)CCN1C(=O)N(C)Cc1cc(Cl)cc(Cl)c1` [Example 13, 7-(R)-(4-Fluoro-2-methyl-phenyl)-4-methyl-[1,4]-diazepane-1-carboxylic acid, (3,5-dichloro-benzyl)-methylamide hydrochloride], the Ki is 0.295 nM.

For the compound `CN(Cc1cc(C(F)(F)F)cc(C(F)(F)F)c1)C(=O)N1CCCNC[C@@H]1c1ccc(F)cc1` [Example 12a, 2-(S)-(4-Fluoro-phenyl)-[1,4]-diazepane-1-carboxylic acid, (3,5bis-trifluoromethyl-benzyl)-methylamide hydrochloride], the Ki is 0.501 nM.

Turning to `Cc1cc(F)ccc1[C@H]1CCNCCN1C(=O)N(C)[C@H](C)c1cc(C(F)(F)F)cc(C(F)(F)F)c1` [Example 4, 7-(R)-(4-Fluoro-2-methyl-phenyl)-[1,4]-diazepane-1-carboxylic acid, [1-(R)-(3,5-bis-trifluoromethyl-phenyl)-ethyl]-methylamide hydrochloride], the Ki is 0.0195 nM.

Regarding `Cc1cc(F)ccc1[C@H]1CNCCCN1C(=O)N(C)[C@H](C)c1cc(C(F)(F)F)cc(C(F)(F)F)c1` [Example 3, 2-(S)-(4-Fluoro-2-methyl-phenyl)-[1,4]-diazepane-1-carboxylic acid, [1-(R)-(3,5-bis-trifluoromethyl-phenyl)-ethyl]-methylamide hydrochloride], the Ki was 0.0245 nM.

Regarding `Cc1cc(F)ccc1[C@H]1CCN(C)CCN1C(=O)N(C)[C@H](C)c1cc(C(F)(F)F)cc(C(F)(F)F)c1` [Example 15, 7-(R)-(4-Fluoro-2-methyl-phenyl)-4-methyl-[1,4]-diazepane-1-carboxylic acid, [1-(R)-(3,5-bis-trifluoromethyl-phenyl)-ethyl]-methylamide hydrochloride.], the Ki was 0.0309 nM.

For `Cc1cc(F)ccc1[C@H]1CCNCCN1C(=O)N(C)Cc1cc(Cl)cc(Cl)c1` [Example 6, 7-(R)-(4-Fluoro-2-methyl-phenyl)-[1,4]-diazepane-1-carboxylic acid, (3,5-dichloro-benzyl)-methylamide hydrochloride], the Ki is 0.0977 nM.
